The NIST ThermoML archive (doi:10.1016/j.jct.2007.11.010)

Assay: xn = mol fraction of the nth substance listed
Details: 101 kPa, Liquid

OCCN1CCOCC1 [4-morpholineethanol] + CCO
mass density [kg/m3]
Details	293.15 K	298.15 K	303.15 K	313.15 K	323.15 K
x1 = 0.0543	820.46	817.03	812.82	804.96	794.75
x1 = 0.1127	851.58	847.96	843.64	835.77	824.13
x1 = 0.1873	886.91	883.05	878.64	870.75	857.23
x1 = 0.2468	911.75	907.72	903.24	895.37	880.63
x1 = 0.2874	927.58	923.45	918.93	911.07	–
x1 = 0.3248	941.14	936.91	932.36	924.52	–
x1 = 0.3873	961.89	957.52	952.92	945.11	927.56
x1 = 0.4267	973.69	969.23	964.6	956.83	938.98
x1 = 0.4882	990.98	986.4	981.73	974	955.56
x1 = 0.5237	1000.12	995.47	990.79	983.09	964.48
x1 = 0.5894	1015.56	1010.8	1006.1	998.46	–
x1 = 0.6422	1026.73	1021.89	1017.17	1009.59	–
x1 = 0.6899	1035.93	1031.02	1026.29	1018.76	1001.11
x1 = 0.7439	1045.49	1040.52	1035.78	1028.31	1011.45
x1 = 0.7855	1051.94	1046.91	1042.18	1034.76	1018.98
x1 = 0.8238	1057.63	1052.57	1047.83	1040.46	1025.59
x1 = 0.8841	1065.21	1060.1	1055.37	1048.08	1035.44
x1 = 0.9247	1069.51	1064.37	1059.65	1052.42	1041.71
x1 = 0.9544	1072.49	1067.33	1062.62	1055.43	1046.13
x1 = 0.9844	1075.58	1070.4	1065.69	1058.55	1050.45
